Experimental data as given in patent US20240360126A1, “PYRAZOLO[3,4-B]PYRIDINE COMPOUNDS FOR THE TREATMENT OF AUTOIMMUNE DISEASE” (Hoffmann-La Roche Inc., priority 2021, published 2024).

Key:
TLR9 [1] = target: T1, TLR9 (Homo sapiens, UniProt Q9NR96); test: TLR9 activity of Novartis WO2018047081 compounds (background comparison)
T1 sequence (Q9NR96 26-1032): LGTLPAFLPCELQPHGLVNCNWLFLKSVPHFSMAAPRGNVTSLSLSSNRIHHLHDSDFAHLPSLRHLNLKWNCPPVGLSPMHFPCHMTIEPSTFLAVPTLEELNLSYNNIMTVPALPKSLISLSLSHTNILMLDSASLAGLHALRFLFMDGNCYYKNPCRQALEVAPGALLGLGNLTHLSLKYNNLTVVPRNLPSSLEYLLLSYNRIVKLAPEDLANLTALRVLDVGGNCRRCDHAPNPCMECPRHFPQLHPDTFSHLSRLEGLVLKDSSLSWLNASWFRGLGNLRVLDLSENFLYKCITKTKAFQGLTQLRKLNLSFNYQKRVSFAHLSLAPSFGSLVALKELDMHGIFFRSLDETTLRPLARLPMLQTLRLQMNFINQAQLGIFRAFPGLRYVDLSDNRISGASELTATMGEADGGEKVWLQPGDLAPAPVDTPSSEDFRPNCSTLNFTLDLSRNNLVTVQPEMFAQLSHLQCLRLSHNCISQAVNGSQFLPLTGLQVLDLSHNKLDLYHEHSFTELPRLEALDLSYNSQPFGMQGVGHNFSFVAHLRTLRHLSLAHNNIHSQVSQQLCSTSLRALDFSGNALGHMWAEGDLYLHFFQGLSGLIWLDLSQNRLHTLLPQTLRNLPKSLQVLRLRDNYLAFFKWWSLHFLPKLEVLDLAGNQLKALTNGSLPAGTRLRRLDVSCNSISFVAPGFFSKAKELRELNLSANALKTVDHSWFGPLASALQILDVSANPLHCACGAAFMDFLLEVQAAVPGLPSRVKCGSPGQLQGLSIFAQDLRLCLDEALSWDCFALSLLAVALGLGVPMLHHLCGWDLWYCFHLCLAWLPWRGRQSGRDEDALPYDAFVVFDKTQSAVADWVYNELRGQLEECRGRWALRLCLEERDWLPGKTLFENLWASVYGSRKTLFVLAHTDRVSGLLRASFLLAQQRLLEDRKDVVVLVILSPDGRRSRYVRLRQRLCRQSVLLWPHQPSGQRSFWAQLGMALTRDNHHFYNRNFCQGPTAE

[2] = Human microsome stability assay; assay type: in vitro ADME; details: for Clearance of Human microsome: 1 μM test compound, 0.5 mg/mL liver microsomal protein, 37° C.
Description: The human microsomal stability assay is used for early assessment of metabolic stability of a test compound in human liver microsomes.
Human liver microsomes (Cat. NO.: 452117, Corning, USA; Cat. NO.:H2610, Xenotech, USA) were preincubated with test compound for 10 minutes at 37° C. in 100 mM potassium phosphate buffer, pH 7.4. The reactions were initiated by adding NADPH regenerating system.
The final incubation mixtures contained 1 μM test compound, 0.5 mg/mL liver microsomal protein, 1 mM MgCl2, 1 mM NADP, 1 unit/mL isocitric dehydrogenase and 6 mM isocitric acid in 100 mM potassium phosphate buffer, pH 7.4. After incubation times of 0, 3, 6, 9, 15 and 30 minutes at 37° C., 300 μL of cold acetonitrile (including internal standard) was added to 100 μL incubation mixture to terminate the reaction. Following precipitation and centrifugation, the amount of compound remaining in the samples were determined by LC-MS/MS. Controls of no NADPH regenerating system at zero and 30 minutes were also prepared and analyzed.

TLR9 [3] = target: T1, TLR9; test: Human PBMC cell-based assay; parameters: These cells express TLR7, TLR8, or TLR9, and therefore are natural responders to respective ligand stimulation; endogenous in cells; host or cells: human PBMC from healthy donor whole blood; details: CpG ODN 2216 at 1 μM, read-out: hPBMC/TLR9 IC50
Source text: Unlike the HEK reporter cell lines, human peripheral blood mononuclear cell (PBMC) represents primary human immune cells in blood mainly consisting of lymphocytes, monocytes, and dendritic cells. These cells express TLR7, TLR8, or TLR9, and therefore are natural responders to respective ligand stimulation. Upon activation of these TLRs, PBMCs secrete similar cytokines and chemokines in vitro and in vivo, and therefore the in vitro potency of a TLR7/8/9 antagonist in human PBMC is readily translatable to its pharmacodynamics response in vivo.
Human peripheral blood mononuclear cells (PBMC) were isolated from freshly-drawn lithium-heparinized (Lithium Heparin Plus blood Collection tube, BD Vacutainer®) healthy donor whole blood by density gradient (Ficoll-Paque™ PLUS, GE Healthcare life Sciences). Briefly, […] was diluted with 25 mL PBS (without Ca^2+, Mg^2+) in a 50 mL conical tube with porous barrier (Leucosep tube, Greiner bio-one), where 15.5 mL Ficoll-Paque was under laid after spinning. Tubes were centrifuged for 20 minutes at 800×g (1946 rpm) with the brake in the off position, and PBMC were collected from the buffy coat. Cells were then washed twice in PBS, and red blood cells were lysed by suspension in 2 mL (Red Blood Cell Lysis Buffer, Alfa Aesar) for 5-10 minutes at room temperature. After a final wash in PBS, PBMC were resuspended at a final concentration of 2×10^6 cells/mL in RPMI-1640 media with GlutaMAX™ (Gibco) supplemented with 10% Fetal Bovine Serum (Sigma) and plated at 150 μL/well (3×10^5 cells/well) in tissue culture treated round bottom 96-well plates (Corning Incorporated). Antagonist compounds (compounds of this invention) solubilized and serial diluted in 100% DMSO were added in duplicate to cells to yield a final concentration of 1% DMSO (v/v). PBMC were incubated with antagonist compounds for 30 minutes at 37° C., 5% CO2 before adding various TLR agonist reagents in 48 μL complete media per well as follows (final concentrations indicated): CpG ODN 2216 (InvivoGen) at 1 μM for TLR9, ORN 06/LyoVec (InvivoGen) at […] for TLR8 and R848 (InvivoGen) at 1 μg/mL for TLR7 and TLR8. PBMC were incubated overnight at 37° C. with 5% C02. Cell culture supernatants were collected, and levels of various human cytokines were assessed by Luminex assay (ProcartaPlex™ Multiplex Immunoassay, Invitrogen) or ELISA procedure according to the manufacturer's recommended protocol (eBioscience, ThermoFisher Scientific). Viability of the cells was also checked with Cell Viability Assay (CellTiter Glo® Luminescent Cell Viability Assay, Promega).

hERG K+ channel = target: T2, hERG K+ channel (Homo sapiens, UniProt Q12809); test: hERG channel inhibition assay (patch-clamp, CHO-hERG cells); assay type: cell-based; details: for IC50 / IC20: CHO-hERG cells, whole-cell patch-clamp; for IC20: human, CHO cells stably expressing hERG; for hERG IC20/TLR7 IC50 / hERG IC20/TLR8 IC50 / hERG IC20/TLR9 IC50: safety ratio
T2 construct: expressed in transfected cells; host or cells: CHO (Chinese hamster ovary)
Description: The hERG K^+ channels were cloned in humans and stably expressed in a CHO (Chinese hamster ovary) cell line. CHOhERG cells were used for patch-clamp (voltage-clamp, whole-cell) experiments. Cells were stimulated by a voltage pattern to activate hERG channels and conduct IKhERG Currents (rapid delayed outward rectifier potassium current of the hERG channel). After the cells were stabilized for a few minutes, the amplitude and kinetics of IKhERG were recorded at a stimulation frequency of 0.1 Hz (6 bpm). Thereafter, the test compound was added to the preparation at increasing concentrations. For each concentration, an attempt was made to reach a steady-state effect, usually, this was achieved within 3-10 min at which time the next highest concentration was applied. The amplitude and kinetics of IKhERG are recorded in each concentration of the drug which were compared to the control values (taken as 100%). (references: Redfe W S, Carlsson L, Davis A S, Lynch W G, MacKenzie I, Palethorpe S, Siegl P K, Strang I, Sullivan A T, Wallis R, Camm A J, Hammond T G. 2003; Relationships between preclinical cardiac electrophysiology, clinical QT interval prolongation and torsade de pointes for a broad range of drugs: evidence for a provisional safety margin in drug development. Cardiovasc. Res. 58:32-45, Sanguinetti M C, Tristani-Firouzi M. 2006; hERG potassium channels and cardiac arrhythmia. Nature 440:463-469, Webster R, Leishman D, Walker D. 2002; Towards a drug concentration effect relationship for QT prolongation and torsades de pointes. Curr. Opin. Drug Discov. Devel. 5:116-26).

T2 sequence (Q12809 whole entry): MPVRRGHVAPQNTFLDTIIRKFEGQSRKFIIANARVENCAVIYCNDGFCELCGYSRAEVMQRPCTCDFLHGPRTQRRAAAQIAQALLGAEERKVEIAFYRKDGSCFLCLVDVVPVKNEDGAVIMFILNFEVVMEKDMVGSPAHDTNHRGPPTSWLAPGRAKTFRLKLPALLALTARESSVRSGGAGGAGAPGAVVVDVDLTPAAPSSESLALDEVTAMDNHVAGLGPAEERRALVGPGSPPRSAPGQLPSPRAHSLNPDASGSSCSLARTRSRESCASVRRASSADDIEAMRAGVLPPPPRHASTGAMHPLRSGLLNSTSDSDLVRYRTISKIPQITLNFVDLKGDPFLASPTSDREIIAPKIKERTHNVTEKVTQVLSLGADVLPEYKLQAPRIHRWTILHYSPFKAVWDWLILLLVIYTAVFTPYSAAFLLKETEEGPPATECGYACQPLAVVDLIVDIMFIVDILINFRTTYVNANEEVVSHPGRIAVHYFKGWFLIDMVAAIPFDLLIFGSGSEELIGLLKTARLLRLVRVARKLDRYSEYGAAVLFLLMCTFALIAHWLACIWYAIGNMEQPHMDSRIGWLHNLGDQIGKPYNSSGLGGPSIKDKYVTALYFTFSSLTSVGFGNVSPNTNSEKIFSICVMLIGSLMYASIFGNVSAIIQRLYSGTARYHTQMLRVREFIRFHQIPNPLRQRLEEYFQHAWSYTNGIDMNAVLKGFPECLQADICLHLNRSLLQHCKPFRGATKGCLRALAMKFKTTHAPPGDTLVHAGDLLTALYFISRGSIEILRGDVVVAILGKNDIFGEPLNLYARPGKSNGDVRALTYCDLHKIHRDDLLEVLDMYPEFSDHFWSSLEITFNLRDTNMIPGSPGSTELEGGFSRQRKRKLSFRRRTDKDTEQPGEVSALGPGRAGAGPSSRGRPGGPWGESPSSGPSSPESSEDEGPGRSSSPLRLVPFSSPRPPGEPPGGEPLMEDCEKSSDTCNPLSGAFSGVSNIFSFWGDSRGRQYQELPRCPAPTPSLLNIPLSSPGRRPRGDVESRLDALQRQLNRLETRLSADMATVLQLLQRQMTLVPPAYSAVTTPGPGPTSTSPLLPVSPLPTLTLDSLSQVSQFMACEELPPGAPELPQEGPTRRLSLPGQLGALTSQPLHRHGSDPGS

For `Cc1cc(N2CCc3c(c(C)nn3CC34CCC(NC(=O)[C@@H]5COCCN5)(CC3)CC4)C2)c2cnn(C)c2n1` [Example N8, reference compound], the “TLR9 activity (in words)” value (TLR9 [1]) was “much lower TLR9 activity”, the “human liver microsome stability (in words)” value [2] was “poor” and the “Clearance of Human microsome” value [2] was 16.3 mL/min/kg.
In the case of `C[C@@H]1CN(c2ccnc3c2cnn3C)CC[C@H]1c1ccc(N2CCNCC2)nc1` (relative stereo) [Example 19, 1-methyl-4-[trans-3-methyl-4-(6-piperazin-1-yl-3-pyridyl)-1-piperidyl]pyrazolo[3,4-b]pyridine], the “Clearance of Human microsome” value [2] is reported as 6.2 mL/min/kg.
For `Cc1cc(N2CCc3c(c(C)nn3CC34CCC(N(C)C5CCC5)(CC3)CC4)C2)c2cnn(C)c2n1` [Example N79, reference compound], the “TLR9 activity (in words)” value (TLR9 [1]) was “best TLR9 activity”, the “human liver microsome stability (in words)” value [2] was “poor” and the “Clearance of Human microsome” value [2] was 18.2 mL/min/kg.
With `Cc1cc(N2CC[C@@H](c3ncc(N4CCNC5(CC5)C4)cc3C)[C@H](C)C2)c2cnn(C)c2n1` [Example 30, 4-[(3S,4R)-4-[5-(4,7-diazaspiro[2.5]octan-7-yl)-3-methyl-2-pyridyl]-3-methyl-1-piperidyl]-1,6-dimethyl-pyrazolo[3,4-b]pyridine] the IC50 (TLR9 [3]) was 780 nM, the IC50 (hERG K+ channel) was > 10 µM and the IC20 (hERG K+ channel) was 4.9 µM. The “hERG IC20/TLR7 IC50” value (hERG K+ channel) was 544.4, the “hERG IC20/TLR8 IC50” value (hERG K+ channel) was 350.0 and the “hERG IC20/TLR9 IC50” value (hERG K+ channel) was 11.6.
With `Cc1cc(N2CCC(c3ncc(N4CCNCC4)nc3C)CC2)c2cnn(C)c2n1` [Example 12, 1,6-dimethyl-4-[4-(3-methyl-5-piperazin-1-yl-pyrazin-2-yl)-1-piperidyl]pyrazolo[3,4-b]pyridine] the IC50 (hERG K+ channel) was > 20 µM, the IC20 (hERG K+ channel) was 7 µM and the “hERG IC20/TLR7 IC50” value (hERG K+ channel) was 205.9. For the same molecule, the “hERG IC20/TLR8 IC50” value (hERG K+ channel) was 233.3, the “hERG IC20/TLR9 IC50” value (hERG K+ channel) was 15.5 and the “Clearance of Human microsome” value [2] was 9.7 mL/min/kg.
